Laboratory results: PubChem BioAssay AID2060903 (Molecular Pharmacology Branch, DTP, NCI, 2025)

Test system: 377384-186-R-J1-PDC complex spheroid viability
Test: Anticancer human tumor 377384-186-R-J1-PDC patient-derived pancreatic carcinoma cell line growth inhibition [RAS]
Details: for IC50: curve of first compound; for viability, T/C: stronger effect = lower value; active = viability on the fitted dose curve at most 10% of control; inactive = the rest
How it was run: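 Agents were tested in combination matrices in half-log decrements from a top concentration at or near clinical Cmax (10 microM if undetermined). Targets were multi-cell spheroids of tumour lines plus HUVEC and MSC stromal cells.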

[1] = second compound 0.00316 µM, first compound 0.0316 µM
[2] = second compound 0.00316 µM, first compound 0.1 µM
[3] = second compound 0.00316 µM, first compound 0.316 µM
[4] = second compound 0.00316 µM, first compound 1 µM
[5] = second compound 0.00316 µM, first compound 3.16 µM
[6] = second compound 0.00316 µM, first compound 10 µM
[7] = second compound 0.01 µM, first compound 0.0316 µM
[8] = second compound 0.01 µM, first compound 0.1 µM
[9] = second compound 0.01 µM, first compound 0.316 µM
[10] = second compound 0.01 µM, first compound 1 µM
[11] = second compound 0.01 µM, first compound 3.16 µM
[12] = second compound 0.01 µM, first compound 10 µM
[13] = second compound 0.0316 µM, first compound 0.0316 µM
[14] = second compound 0.0316 µM, first compound 0.1 µM
[15] = second compound 0.0316 µM, first compound 0.316 µM
[16] = second compound 0.0316 µM, first compound 1 µM
[17] = second compound 0.0316 µM, first compound 3.16 µM
[18] = second compound 0.0316 µM, first compound 10 µM
[19] = second compound 0.1 µM, first compound 0.0316 µM
[20] = second compound 0.1 µM, first compound 0.1 µM
[21] = second compound 0.1 µM, first compound 0.316 µM
[22] = second compound 0.1 µM, first compound 1 µM
[23] = second compound 0.1 µM, first compound 3.16 µM
[24] = second compound 0.1 µM, first compound 10 µM
[25] = second compound 0.316 µM, first compound 0.0316 µM
[26] = second compound 0.316 µM, first compound 0.1 µM
[27] = second compound 0.316 µM, first compound 0.316 µM
[28] = second compound 0.316 µM, first compound 1 µM
[29] = second compound 0.316 µM, first compound 3.16 µM
[30] = second compound 0.316 µM, first compound 10 µM
[31] = second compound 1 µM, first compound 0.0316 µM
[32] = second compound 1 µM, first compound 0.1 µM
[33] = second compound 1 µM, first compound 0.316 µM
[34] = second compound 1 µM, first compound 1 µM
[35] = second compound 1 µM, first compound 3.16 µM
[36] = second compound 1 µM, first compound 10 µM
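Note: spheroids exposed to compounds for seven days before readout.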

CCC(CC)c1cc(NC2CCC(N)C2)n2nccc2n1 (stereo unspecified) + C=CC(=O)N1CCN(c2nc(OCC3CCCN3C)nc3c(F)c(-c4nc(N)cc(C)c4C(F)(F)F)c(Cl)cc23)C(C)C1
1.7 µM: IC50 (second compound 0.0316 µM)
1.58 µM: IC50 (second compound 0.00316 µM)
active: viability, T/C [5] 2.73% | viability, T/C [6] 4.78% | viability, T/C [11] 2.18% | viability, T/C [12] 3.83% | viability, T/C [17] 2.68% | viability, T/C [18] 4.52% | viability, T/C [23] 2.71% | viability, T/C [24] 5.16% | viability, T/C [29] 3.2% | viability, T/C [30] 6.46% | viability, T/C [35] 3.19% | viability, T/C [36] 6.78%
1.77 µM: IC50 (second compound 1 µM)
1.65 µM: IC50 (second compound 0.01 µM)
inactive: viability, T/C [1] 98% | viability, T/C [2] 100% | viability, T/C [3] 109% | viability, T/C [4] 80.4% | viability, T/C [7] 106% | viability, T/C [8] 100% | viability, T/C [9] 110% | viability, T/C [10] 86.5% | viability, T/C [13] 107% | viability, T/C [14] 88.6% | viability, T/C [15] 124% | viability, T/C [16] 89.4% | viability, T/C [19] 101% | viability, T/C [20] 97.9% | viability, T/C [21] 112% | viability, T/C [22] 91.3% | viability, T/C [25] 101% | viability, T/C [26] 102% | viability, T/C [27] 101% | viability, T/C [28] 90.3% | viability, T/C [31] 94.4% | viability, T/C [32] 95.8% | viability, T/C [33] 96.8% | viability, T/C [34] 94.6%
1.72 µM: IC50 (second compound 0.1 µM) | IC50 (second compound 0.316 µM)

Cc1nc(N2CCC3(CC2)COC(C)C3N)c(CO)nc1Sc1ccnc(N)c1Cl (stereo unspecified) + C=CC(=O)N1CCN(c2nc(OCC3CCCN3C)nc3c(F)c(-c4nc(N)cc(C)c4C(F)(F)F)c(Cl)cc23)C(C)C1
> 10 µM: IC50 (second compound 0.00316 µM) | IC50 (second compound 0.01 µM) | IC50 (second compound 0.0316 µM) | IC50 (second compound 0.1 µM) | IC50 (second compound 0.316 µM) | IC50 (second compound 1 µM)
inactive: viability, T/C [1] 94.2% | viability, T/C [2] 77% | viability, T/C [3] 84% | viability, T/C [4] 80.4% | viability, T/C [5] 70% | viability, T/C [6] 67% | viability, T/C [7] 90.9% | viability, T/C [8] 85.9% | viability, T/C [9] 81% | viability, T/C [10] 74.7% | viability, T/C [11] 79.1% | viability, T/C [12] 77.8% | viability, T/C [13] 91.1% | viability, T/C [14] 80.7% | viability, T/C [15] 72.4% | viability, T/C [16] 80.4% | viability, T/C [17] 79.2% | viability, T/C [18] 78.4% | viability, T/C [19] 84.4% | viability, T/C [20] 82.7% | viability, T/C [21] 70.7% | viability, T/C [22] 76% | viability, T/C [23] 80.1% | viability, T/C [24] 74.6% | viability, T/C [25] 91.8% | viability, T/C [26] 87% | viability, T/C [27] 76.5% | viability, T/C [28] 79.3% | viability, T/C [29] 75.7% | viability, T/C [30] 69.8% | viability, T/C [31] 84.1% | viability, T/C [32] 91.2% | viability, T/C [33] 81.7% | viability, T/C [34] 73.6% | viability, T/C [35] 78.4% | viability, T/C [36] 79.8%

NC1c2ccccc2OC12CCN(c1cnc3c(N4CCCc5ncccc54)n[nH]c3n1)CC2 (stereo unspecified) + C=CC(=O)N1CCN(c2nc(OCC3CCCN3C)nc3c(F)c(-c4nc(N)cc(C)c4C(F)(F)F)c(Cl)cc23)C(C)C1
> 10 µM: IC50 (second compound 0.00316 µM) | IC50 (second compound 0.01 µM) | IC50 (second compound 0.0316 µM) | IC50 (second compound 0.1 µM) | IC50 (second compound 0.316 µM) | IC50 (second compound 1 µM)
inactive: viability, T/C [1] 82.9% | viability, T/C [2] 77% | viability, T/C [3] 66.5% | viability, T/C [4] 69.1% | viability, T/C [5] 75.6% | viability, T/C [6] 68.4% | viability, T/C [7] 86.9% | viability, T/C [8] 63.1% | viability, T/C [9] 76.8% | viability, T/C [10] 71.9% | viability, T/C [11] 65.8% | viability, T/C [12] 63.8% | viability, T/C [13] 83.5% | viability, T/C [14] 68.8% | viability, T/C [15] 76% | viability, T/C [16] 65.7% | viability, T/C [17] 57.7% | viability, T/C [18] 66% | viability, T/C [19] 90.7% | viability, T/C [20] 70.1% | viability, T/C [21] 75.9% | viability, T/C [22] 64.5% | viability, T/C [23] 72.1% | viability, T/C [24] 70.7% | viability, T/C [25] 81.2% | viability, T/C [26] 70.8% | viability, T/C [27] 78.9% | viability, T/C [28] 70.3% | viability, T/C [29] 71.8% | viability, T/C [30] 71% | viability, T/C [31] 79.3% | viability, T/C [32] 73.3% | viability, T/C [33] 77.9% | viability, T/C [34] 73.1% | viability, T/C [35] 76.3% | viability, T/C [36] 68.4%
